From a melting point compilation (Tetko et al.; mined from patent text by program, amines drawn as free bases though some values may be those of a salt)

Row | Structure (SMILES) | melting point [°C]
1 | O=C(CCc1ccccc1)N[C@H](Cc1ccc(C(F)(F)F)cc1)[C@@H](O)c1ccccc1 (racemic) | 147 to 148
2 | COc1ccc(CC(=O)c2c(O)cc(OC)cc2OC)c(OC)c1 | 116 to 119
3 | CC(C)Nc1c(-c2c(F)cc(F)cc2F)c(Cl)nc2nncn12 | 268 to 273
4 | CC(Cn1ncnn1)n1nnc2cc3c(=O)n(Cc4cccnc4)nnc3cc2c1=O (stereo unspecified) | 200
5 | O=C(O)c1cc(C(F)(F)F)ccc1Sc1ccccc1 | 140 to 145
6 | C=CCOc1ccccc1-c1nc2nc(SC)nnc2c(=O)[nH]1 | 238 to 239
7 | CC(=O)Oc1cc2c(c3ccccc13)N(C(C)=O)c1ccccc1S2 | 141 to 142
8 | CCOC(=O)C(Cl)=Cc1cc(-n2ncc(C(F)(F)F)cc2=O)ccc1Cl | 98 to 100
9 | N=C(N)c1ccc(C(=O)N2CCCCC2C(=O)N2CCC(OCC(=O)O)CC2)cc1 (stereo unspecified) | 233 to 234
10 | COc1ccc(N)c(SSc2cc(OC)ccc2N)c1 | 78 to 80
11 | CCOC(=O)c1csc(-c2ccc3c(=O)n(CC(C)C)c(CNC(=O)OCC4c5ccccc5-c5ccccc54)c(-c4ccccc4)c3c2)n1 | 151 to 152
12 | COC=Nc1c(C#N)c(C)nn1-c1c(Cl)cc(C(F)(F)F)cc1Cl | 75 to 78
13 | O=C1C=CCC(c2ccccc2)(c2ccccc2)O1 | 170 to 173
14 | CCc1ccc2[nH]c3cnn(C)c3c(=O)c2c1 | 266
15 | Cc1cc2c(c(C(O)=S)c1)OCCO2 | 181 to 183
16 | O=C(CCc1ccccc1)N[C@H]1CCCN2CCC[C@@H](C(=O)O)N2C1=O | 198 to 202
17 | COCCNCCC(=O)Nc1nc(-c2ccccc2)c(-c2ccc(=O)n(C(C)C)n2)s1 | 167 to 168
18 | Cc1cccc(-c2nc(NC(=O)c3cccnc3)sc2-c2ccnc(NCc3ccccc3)c2)c1 | 220 to 222
19 | O=C(NC1(C(=O)O)CCOCC1)OCc1ccccc1 | 110 to 115
20 | NC(=S)c1ncn(C2OC(COS(N)(=O)=O)C(O)C2O)n1 (stereo unspecified) | 173 to 175
21 | COc1ccc2c(c1)C=C(/C=C/C=C/C=C/C(=O)O)C(C)(C)O2 | 154 to 156
22 | O=C(O)c1ccnc(-c2ccc(Cl)c(C(=O)NCC34CC5CC(CC(C5)C3)C4)c2)c1 | 284 to 287
23 | CC1(C)Oc2cc(N)c([N+](=O)[O-])cc2O1 | 128 to 129
24 | O=C(O)c1cc(Br)cc([N+](=O)[O-])c1NCc1ccccc1Cl | 159 to 161

Row | Structure (SMILES) | melting point [°C]
25 | CCCC1=C(CCC)C1(C(=O)Nc1ccc(Br)cc1C)C(=O)OC | 52 to 54
26 | O=[N+]([O-])c1cc(F)cc2c1OCCC2 | 48 to 50
27 | CCOCc1nc2c(N)nc3cc(N4CCCCC4)ccc3c2n1CCCOC(C)C | 182 to 184
28 | O=C(c1ccc([N+](=O)[O-])cc1)N1CCCCc2ccccc21 | 148 to 150
29 | O=C1C2=C(CCCC2)C(=O)N1c1cc(OC2CCCCC2)c(Cl)cc1F | 102 to 103
30 | CCc1c(C)c2c(c(OS(=O)(=O)c3ccc(C)cc3)c1C/C=C(\C)CCC(=O)OC)C(=O)OC2 | 101 to 103
31 | CC[C@H]1[C@H](O)CC(=O)N1c1ccc(C#N)c(Cl)c1C | 142 to 146
32 | COc1cccc(Nc2nccc(-c3sc(N)nc3-c3ccccc3)n2)c1 | 115 to 117
33 | O=C(O)CNC(=O)c1nc(Cl)c2cc(OCc3ccccc3)ccc2c1O | 194 to 196
34 | O=C(Nc1cc2ncc(CN3CCCC3)cc2cc1F)c1ccc(-c2ccc(Cl)cc2)cc1 | 218 to 220
35 | Cc1[nH]c(=S)n(Nc2ccc(F)cc2)c1-c1ccccc1 | 228
36 | COC(Nc1ccccc1)(OC)C1(Br)C=CN=C(C(=O)c2ccccc2)C1 (stereo unspecified) | 189 to 190
37 | Cc1ccc(S(=O)(=O)NC(C)(C)CO)cc1NC(=O)c1cnn2c(C(F)F)cc(-c3ccc(C(F)(F)F)cc3)nc12 | 214
38 | NS(=O)(=O)OCCOc1cccc(Cl)c1 | 66 to 69
39 | CNc1c(N)cnn1CCO | 138 to 140
40 | CC(C)(C)OC(=O)NCC(Cl)c1ccccc1 (stereo unspecified) | 57 to 59
41 | COc1cc2ncc(C#N)c(Nc3ccc(F)c(Cl)c3)c2cc1NC(=O)C=CCN1CCC(N2CCCCC2)CC1 | 140 to 144
42 | CCOC(=O)c1ccc(OCc2nc(-c3ccccc3)oc2C)c(OC)c1 | 103 to 104
43 | CCc1nnc2c(NC3CC3)nc3ccccc3n12 | 190 to 192
44 | O=C(Nc1cccc(-c2c(-c3ccccc3C(F)(F)F)cnc3c(C(F)(F)F)cccc23)c1)Nc1ccccc1Cl | 230 to 232
45 | CC1NC(=O)NN=C1c1ccc(N2CCCC2)cc1 (stereo unspecified) | 276 to 281
46 | CCOC(=O)c1c(OC(=O)C=C(C)C)c(CC)c(C)[nH]c1=O | 166
47 | N#Cc1ccc(-c2ccc(O)cc2)cc1F | 67 to 68
48 | CCn1ncc2c1ncc1c(=O)n3nccc3n(CCC(C)C)c12 | 167 to 168

Row | Structure (SMILES) | melting point [°C]
49 | O=c1[nH]c2ccccc2c(=O)n1CCN1CCC(c2c[nH]c3cc(F)ccc23)CC1 | 301
50 | N#CNC(=NCCc1ccccc1Cl)c1cncc(NCc2ccccc2)c1 | 146
51 | COc1ccc2ccc(N3C(=O)c4ccccc4C3CC(=O)CCc3ccccc3)nc2n1 (stereo unspecified) | 180
52 | CC(=O)OCC1=NC(NC(=O)Nc2cccc(C)c2)C(=O)N(CC(=O)N2CCCCCCC2)c2c(C)cccc21 (stereo unspecified) | 112 to 114
53 | CC12CCC(=O)C=C1CCN(C(=O)OCc1ccccc1)C2 (stereo unspecified) | 128
54 | O=C(O)CCCNC(=O)c1ccccc1NC(=O)c1ccc(Cl)cc1 | 182 to 184
55 | CN(C)C(=O)CC(C)(C)C(=O)O | 119 to 121
56 | CC(=NOCCO)c1ccc2ccccc2n1 | 89
57 | CCOC(=O)CCCCCCCCCCCNC(=O)c1cc(OCc2ccccc2)ccc1OCc1ccccc1 | 70 to 71
58 | O=C1Nc2cccc(-c3cccc(NC(=O)c4cccc(Br)c4)c3)c2/C1=C/c1ccc[nH]1 | 251 to 253
59 | CC(=O)SCC(Cc1c(Cl)cccc1Cl)C(=O)NN1CCOCC1 (stereo unspecified) | 175
60 | O=C(c1ccc(F)c(F)c1)N1CCC[C@H](c2nc(-c3ccncc3)no2)C1 | 102 to 106
61 | O=C(c1ccccc1)C(c1cccc2ccccc12)P(=O)(O)O (stereo unspecified) | 184 to 187
62 | CCCCCCCCCCCCCCCc1cc(OCC(COC(=O)NCCCCCn2cnnn2)Oc2cc(C)on2)no1 (racemic) | 82 to 84
63 | CSc1ccc2nccn2n1 | 66 to 68
64 | CC(=O)Oc1cc(C(=O)O)cc([N+](=O)[O-])c1OC(C)=O | 126 to 127
65 | OCc1nnc(-c2ccc3occ(-c4cccc(OC(F)(F)F)c4)c3c2)o1 | 158 to 159
66 | CC(C)(C)C(=O)CC(=O)c1ccccc1 | 43 to 45
67 | Cc1ccc2c(cc(C(=O)O)n2CCCC#N)c1C | 175
68 | CCOC(=O)C(=CNc1cccc(C2=NC(C)(C)Cc3cc(OC)c4c(c32)CC(C)(C)O4)c1)C(=O)OCC | 115 to 117
69 | COC(=O)c1ccc(I)c(O)c1 | 153
70 | COC(=O)Nc1ccccc1CSc1ncc(C(F)(F)F)cc1Cl | 111 to 113
71 | CCOC(=O)C(CC(=O)c1ccccc1Cl)(NC(C)=O)C(=O)OCC | 157 to 158
